# Experimental data taken from patent US12441679B2, “Acrylamide-substituted indane compounds and therapeutic use thereof” (Sanofi, priority 2020, dated 2025).
# Tested on: YAP1-TEAD and TAZ-TEAD activity (TEAD responsive promoter element)
# Assay: TEAD-Luciferase Reporter Assay (8XGTIIC-Luciferase construct stably integrated in tumor cell lines)
# Assay type: cell-based, human
# Settings: 8XGTIIC-Luciferase reporter in tumor cell lines, 48 hrs compound treatment, 10 doses 1-10000 nM
# Text: TEAD-Luciferase Reporter Assay
# Luciferase-based gene reporter assays were used, employing the TEAD responsive promoter element that are stably integrated to different human tumor cell lines in order to monitor YAP1-TEAD and TAZ-TEAD activity and to study YAP1/TAZ-TEAD activity modulation by small molecule compounds. Luciferase-based gene reporter assays employing the GAPDH promoter element and stably integrated to different human tumor cell lines are used as counter screen control cell lines.
# Tumor cell lines with stable integration of the 8XGTIIC-Luciferase construct (Dupont et al., Nature 2011) or the GAPDH-Luciferase control plasmid, are seeded in culture medium in 96-well plates at a density of 8000 cells/well. Following an overnight incubation in a 37° C., 5% CO2 growth chamber, cells are treated with compounds described above at 10 doses ranging between 1 and 10000 nM for 48 hrs. After compound incubation, cells are lysed with Bright-Glo Luciferase Assay System (Promega E2620) and luciferase activity is measured using a luminescent plate reader.
# The inhibitory activity of the compounds with respect to luciferase activity is given by the concentration which inhibits 50% of activity of non-treated cells. IC50s are determined with a nonlinear regression model on XLfit software analysis (IDBS, UK).
row,Compound,IC50 [µM]
1,"(S)—N-(1-((3-(trifluoromethyl)phenyl)amino)-2,3-dihydro-1H-inden-5-yl)acrylamide [Example 3]",0.109

# Same assay, conditions: Homo sapiens; 8XGTIIC-Luciferase reporter in tumor cell lines, 48 hrs compound treatment, 10 doses 1-10000 nM
row,Compound,IC50 [µM]
1,"C=CC(=O)Nc1ccc2c(c1)CCC2NCc1cccc(C(F)(F)F)c1 (centres unmarked) [Example 24, N-(1-((3-(trifluoromethyl)benzyl)amino)-2,3-dihydro-1H-inden-5-yl)acrylamide]",8.04
2,"C=CC(=O)Nc1ccc2c(c1)CC[C@@H]2Oc1cccc(C(F)(F)F)c1 (single isomer, unassigned) [Example 84]",0.153
3,"C=CC(=O)Nc1ccc2c(c1)CC(NCCCF)C2 (centres unmarked) [Example 30, N-(2-((3-fluoropropyl)amino)-2,3-dihydro-1H-inden-5-yl)acrylamide]",> 10
4,"C=CC(=O)Nc1ccc2c(c1)C[C@H](Nc1cccc(F)c1)C2 (single isomer, unassigned) [Example 49]",0.105
5,"C=CC(=O)Nc1ccc2c(c1)CCC2Nc1ccc(C(F)(F)F)nc1 (centres unmarked) [Example 20, N-(1-((6-(trifluoromethyl)pyridin-3-yl)amino)-2,3-dihydro-1H-inden-5-yl)acrylamide]",0.358
6,"C=CC(=O)Nc1ccc2c(c1)C(Oc1ccc(F)cc1)CC2 (centres unmarked) [Example 42, N-(3-(4-fluorophenoxy)-2,3-dihydro-1H-inden-5-yl)acrylamide]",0.029
7,"C=CC(=O)Nc1ccc2c(c1)C(Oc1ccc(C(F)(F)F)cn1)CC2 (centres unmarked) [Example 88, N-[3-[[5-(trifluoromethyl)pyridin-2-yl]oxy]-2,3-dihydro-1H-inden-5-yl]acrylamide]",0.051
8,"C=CC(=O)Nc1ccc2c(c1)C(Nc1ccc(F)cc1)CC2 (centres unmarked) [Example 15, N-(3-((4-fluorophenyl)amino)-2,3-dihydro-1H-inden-5-yl)acrylamide]",0.048
9,"C=CC(=O)Nc1ccc2c(c1)C[C@@H](O)[C@@H]2Nc1cccc(C(F)(F)F)c1 (relative stereo) [Example 95, N-[(trans)-2-hydroxy-1-[3-(trifluoromethyl)anilino]-2,3-dihydro-1H-inden-5-yl]acrylamide]",0.653
10,"C=CC(=O)Nc1ccc2c(c1)CC[C@H]2Nc1cc(C(F)(F)F)ccn1 (single isomer, unassigned) [Example 58]",0.216
11,"C=CC(=O)Nc1ccc2c(c1)CC[C@@H]2Nc1ccc(C(F)(F)F)cc1 (single isomer, unassigned) [Example 56]",0.044
12,"C=CC(=O)Nc1ccc2c(c1)CC(N[C@H]1CC[C@@H](C(F)(F)F)CC1)C2 (relative stereo) [Example 26, N-(2-(((cis)-4-(trifluoromethyl)cyclohexyl)amino)-2,3-dihydro-1H-inden-5-yl)acrylamide]",> 10
13,"C=CC(=O)Nc1ccc2c(c1)C(Nc1cccc(F)c1)CC2 (centres unmarked) [Example 14, N-(3-((3-fluorophenyl)amino)-2,3-dihydro-1H-inden-5-yl)acrylamide]",0.054
14,"C=CC(=O)Nc1ccc2c(c1)C[C@@H](Nc1cccc(F)c1)C2 (single isomer, unassigned) [Example 48]",0.069
15,"C=CC(=O)Nc1ccc2c(c1)CC(Nc1ccc(C(F)(F)F)cc1)C2 (centres unmarked) [Example 52, N-[2-[4-(trifluoromethyl)anilino]-2,3-dihydro-1H-inden-5-yl]acrylamide]",2.82
16,"C=CC(=O)Nc1ccc2c(c1)C(Oc1ccc(F)c(F)c1)CC2 (centres unmarked) [Example 40, N-(3-(3,4-difluorophenoxy)-2,3-dihydro-1H-inden-5-yl)acrylamide]",0.015
17,"C=CC(=O)Nc1ccc2c(c1)CCC2Nc1cc(F)cc(F)c1 (centres unmarked) [Example 9, N-(1-((3,5-difluorophenyl)amino)-2,3-dihydro-1H-inden-5-yl)acrylamide]",0.167
18,"C=CC(=O)Nc1ccc2c(c1)C(Oc1cccc(C(F)(F)F)c1)CC2 (centres unmarked) [Example 39, N-(3-(3-(trifluoromethyl)phenoxy)-2,3-dihydro-1H-inden-5-yl)acrylamide]",0.053
19,"C=CC(=O)Nc1ccc2c(c1)CCC2Nc1ccc(F)c(F)c1 (centres unmarked) [Example 16, N-(1-((3,4-difluorophenyl)amino)-2,3-dihydro-1H-inden-5-yl)acrylamide]",0.038
20,"C=CC(=O)Nc1ccc2c(c1)C(Oc1ccccc1)CC2 (centres unmarked) [Example 38, N-(3-phenoxy-2,3-dihydro-1H-inden-5-yl)acrylamide]",0.074
21,"C=CC(=O)Nc1ccc2c(c1)C(OCCCCC(F)(F)F)CC2 (centres unmarked) [Example 72, N-(3-((5,5,5-trifluoropentyl)oxy)-2,3-dihydro-1H-inden-5-yl)acrylamide]",0.861
22,"C=CC(=O)Nc1ccc2c(c1)[C@@H](Oc1ccc(C(F)(F)F)cc1)CC2 (single isomer, unassigned) [Example 86]",0.134

row,Compound,IC50 [µM]
1,"C=CC(=O)Nc1ccc2c(c1)CC(N[C@H]1CC[C@H](C(F)(F)F)CC1)C2 (relative stereo) [Example 27, N-(2-(((trans)-4-(trifluoromethyl)cyclohexyl)amino)-2,3-dihydro-1H-inden-5-yl)acrylamide]",> 10
2,"C=CC(=O)Nc1ccc2c(c1)C(Oc1cccc(C3CC3)c1)CC2 (centres unmarked) [Example 81, N-(3-(3-cyclopropylphenoxy)-2,3-dihydro-1H-inden-5-yl)acrylamide]",0.117
3,"C=CC(=O)Nc1ccc2c(c1)CCC2N(C)c1cccc(C(F)(F)F)c1 (centres unmarked) [Example 62, N-(1-(methyl(3-(trifluoromethyl)phenyl)amino)-2,3-dihydro-1H-inden-5-yl)acrylamide]",0.07
4,"C=CC(=O)Nc1ccc2c(c1)CC[C@H]2Nc1ccc(F)cc1 [Example 7, (R)—N-(1-((4-fluorophenyl)amino)-2,3-dihydro-1H-inden-5-yl)acrylamide]",0.028
5,"C=CC(=O)Nc1ccc2c(c1)CCC2Nc1cccc(OC)c1 (centres unmarked) [Example 17, N-(1-((3-methoxyphenyl)amino)-2,3-dihydro-1H-inden-5-yl)acrylamide]",> 10
6,"C=CC(=O)Nc1ccc2c(c1)C(Oc1cccc(C)c1)CC2 (centres unmarked) [Example 79, N-(3-(m-tolyloxy)-2,3-dihydro-1H-inden-5-yl)acrylamide]",8.67
7,"C=CC(=O)Nc1ccc2c(c1)C(Oc1cccc(SC)c1)CC2 (centres unmarked) [Example 80, N-(3-(3-(methylthio)phenoxy)-2,3-dihydro-1H-inden-5-yl)acrylamide]",0.3
8,"C=CC(=O)Nc1ccc2c(c1)CCC2Oc1cccc(C(F)(F)F)c1 (centres unmarked) [Example 45, N-(1-(3-(trifluoromethyl)phenoxy)-2,3-dihydro-1H-inden-5-yl)acrylamide]",0.012
9,"C=CC(=O)Nc1ccc2c(c1)C(OCCC(F)(F)F)CC2 (centres unmarked) [Example 75, N-(3-(3,3,3-trifluoropropoxy)-2,3-dihydro-1H-inden-5-yl)acrylamide]",4.72
10,"C=CC(=O)Nc1ccc2c(c1)CCC2Oc1cccc(OC(F)(F)F)c1 (centres unmarked) [Example 46, N-(1-(3-(trifluoromethoxy)phenoxy)-2,3-dihydro-1H-inden-5-yl)acrylamide]",4.56
11,"C=CC(=O)Nc1ccc2c(c1)C(OCC(F)(F)F)CC2 (centres unmarked) [Example 74, N-(3-(2,2,2-trifluoroethoxy)-2,3-dihydro-1H-inden-5-yl)acrylamide]",3.69
12,"C=CC(=O)Nc1ccc2c(c1)C(Oc1cccc(C(=O)OC)c1)CC2 (centres unmarked) [Example 47, methyl 3-[6-(prop-2-enoylamino)-2,3-dihydro-1H-inden-1-yl]oxybenzoate]",4.35
13,"C=CC(=O)Nc1ccc2c(c1)CC(Nc1cccc(C(F)(F)F)c1)C2 (centres unmarked) [Example 32, N-(2-((3-(trifluoromethyl)phenyl)amino)-2,3-dihydro-1H-inden-5-yl)acrylamide]",0.064
14,"C=CC(=O)Nc1ccc2c(c1)CC(Nc1cccc(F)c1)C2 (centres unmarked) [Example 31, N-(2-((3-fluorophenyl)amino)-2,3-dihydro-1H-inden-5-yl)acrylamide]",0.02
15,"C=CC(=O)Nc1ccc2c(c1)CCC2NCc1ccc(C(F)(F)F)cc1 (centres unmarked) [Example 25, N-(1-((4-(trifluoromethyl)benzyl)amino)-2,3-dihydro-1H-inden-5-yl)acrylamide]",8.24
16,"C=CC(=O)Nc1ccc2c(c1)C(C)(C)CC2Nc1ccc(C(F)(F)F)cc1 (centres unmarked) [Example 66, N-(3,3-dimethyl-1-((4-(trifluoromethyl)phenyl)amino)-2,3-dihydro-1H-inden-5-yl)acrylamide]",0.863
17,"C=CC(=O)Nc1ccc2c(c1)[C@@H](Nc1cccc(C(F)(F)F)c1)[C@H](O)C2 (racemic) [Example 96, N-[rac-(2R,3R)-2-hydroxy-3-[3-(trifluoromethyl)anilino]-2,3-dihydro-1H-inden-5-yl]acrylamide]",1.98
18,"C=CC(=O)Nc1ccc2c(c1)CC(NC1CCC(F)(F)CC1)C2 (centres unmarked) [Example 28, N-(2-((4,4-difluorocyclohexyl)amino)-2,3-dihydro-1H-inden-5-yl)acrylamide]",4.02
19,"C=CC(=O)N(C)c1ccc2c(c1)CC(C)C2Nc1cccc(C(F)(F)F)c1 (centres unmarked) [Example 93, N-methyl-N-(2-methyl-1-((3-(trifluoromethyl)phenyl)amino)-2,3-dihydro-1H-inden-5-yl)acrylamide]",0.513
20,"C=CC(=O)Nc1ccc2c(c1)C(Nc1ccc(F)c(F)c1)CC2 (centres unmarked) [Example 13, N-(3-((3,4-difluorophenyl)amino)-2,3-dihydro-1H-inden-5-yl)acrylamide]",0.037
21,"C=CC(=O)Nc1ccc2c(c1)CCC2Nc1cccc(C(F)(F)F)c1 (centres unmarked) [Example 1, N-(1-((3-(trifluoromethyl)phenyl)amino)-2,3-dihydro-1H-inden-5-yl)acrylamide]",0.072
